Measurements reported in patent US20070197569A1, “Method for treating central nervous system disorders with substituted 2-imidazoline derivatives” (priority 2006, published 2007).

biological target: T1, mouse TAAR1 (Mus musculus, UniProt Q923Y8); assay: Radioligand binding on membranes of HEK293 cells stably expressing TAAR1, [3H]-rac-2-(1,2,3,4-tetrahydro-1-naphthyl)-2-imidazoline; settings: mouse TAAR1; radioligand at 60 nM; 4° C., 30 min incubation
T1 construct: expressed in transfected cells; host or cells: HEK293 (ATCC # CRL-1573), stably transfected with pIRESneo2 expression plasmid
T1 sequence (Q923Y8 whole entry): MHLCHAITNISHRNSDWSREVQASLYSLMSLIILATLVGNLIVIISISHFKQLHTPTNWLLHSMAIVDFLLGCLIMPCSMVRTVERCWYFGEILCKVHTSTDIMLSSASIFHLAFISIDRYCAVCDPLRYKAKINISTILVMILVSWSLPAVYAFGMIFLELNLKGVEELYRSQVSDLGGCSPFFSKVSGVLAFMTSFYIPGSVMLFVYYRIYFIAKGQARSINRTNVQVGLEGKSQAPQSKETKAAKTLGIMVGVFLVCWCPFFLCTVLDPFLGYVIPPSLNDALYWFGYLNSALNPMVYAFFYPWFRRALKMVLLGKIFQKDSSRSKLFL
Experimental: For the construction of expression plasmids the coding sequences of human, rat and mouse TAAR 1 were amplified from genomic DNA essentially as described by Lindemann et al.. The Expand High Fidelity PCR System (Roche Diagnostics) was used with 1.5 mM Mg^2+ and purified PCR products were cloned into pCR2.1-TOPO cloning vector (Invitrogen) following the instructions of the manufacturer. PCR products were subcloned into the pIRESneo2 vector (BD Clontech, Palo Alto, Calif.), and expression vectors were sequence verified before introduction in cell lines.
HEK293 cells (ATCC # CRL-1573) were cultured essentially as described Lindemann et al. (2005). For the generation of stably transfected cell lines HEK293 cells were transfected with the pIRESneo2 expression plasmids containing the TAAR coding sequences (described above) with Lipofectamine 2000 (Invitrogen) according to the instructions of the manufacturer, and 24 hrs post transfection the culture medium was supplemented with 1 mg/ml G418 (Sigma, Buchs, Switzerland). After a culture period of about 10 d clones were isolated, expanded and tested for responsiveness to trace amines (all compounds purchased from Sigma) with the cAMP Biotrak Enzyme immunoassay (EIA) System (Amersham) following the non-acetylation EIA procedure provided by the manufacturer.
Cells at confluence were rinsed with ice-cold phosphate buffered saline without Ca^2+ and Mg^2+ containing 10 mM EDTA and pelleted by centrifugation at 1000 rpm for 5 min at 4° C. The pellet was then washed twice with ice-cold phosphate buffered saline and cell pellet was frozen immediately by immersion in liquid nitrogen and stored until use at −80° C. Cell pellet was then suspended in 20 ml HEPES—NaOH (20 mM), pH 7.4 containing 10 mM EDTA, and homogenized with a Polytron (PT 3000, Kinematica) at 10,000 rpm for 10 s. The homogenate was centrifuged at 48,000×g for 30 min at 4° C. and the pellet resuspended in 20 ml HEPES—NaOH (20 mM), pH 7.4 containing 0.1 mM EDTA (buffer A), and homogenized with a Polytron at 10,000 rpm for 10 s. The homogenate was then centrifuged at 48,000×g for 30 min at 4° C. and the pellet resuspended in 20 ml buffer A, and homogenized with a Polytron at 10,000 rpm for 10 s. Protein concentration was determined by the method of Pierce (Rockford, Ill.). The homogenate was then centrifuged at 48,000×g for 10 min at 4° C., resuspended in HEPES—NaOH (20 mM), pH 7.0 including MgCl2 (10 mM) and […] homogenized with a Polytron at 10,000 rpm for 10 s.
Binding assay was performed at 4° C. in a final volume of 1 ml, and with an incubation time of 30 min. The radioligand [^3H]-rac-2-(1,2,3,4-tetrahydro-1-naphthyl)-2-imidazoline was used at a concentration equal to the calculated Kd value of 60 nM to give a bound at around 0.1% of the total added radioligand concentration, and a specific binding which represented approximately 70-80% of the total binding. Non-specific binding was defined as the amount of [^3H]-rac-2-(1,2,3,4-tetrahydro-1-naphthyl)-2-imidazoline bound in the presence of the appropriate unlabelled ligand (10 μM). Competing ligands were tested in a wide range of concentrations (10 pM-30 μM). […] Each experiment was performed in duplicate. All incubations were terminated by rapid filtration through UniFilter-96 plates (Packard Instrument Company) and glass filter GF/C, pre-soaked for at least 2 h in polyethylenimine 0.3%, and using a Filtermate 96 Cell Harvester (Packard Instrument Company). The tubes and filters were then washed 3 times with 1 ml aliquots of cold buffer B. Filters were not dried and soaked in Ultima gold (45 μl/well, Packard Instrument Company) and bound radioactivity was counted by a TopCount Microplate Scintillation Counter (Packard Instrument Company).

| Structure (SMILES) | Ki [µM] |
| --- | --- |
| Cc1cccc(C)c1N=C1NCCN1 [Example 2, (4,5-Dihydro-1H-imidazol-2-yl)-(2,6-dimethyl-phenyl)-amine or tautomer] | 0.149 |
| CCc1cccc(CC)c1NC1=NCCN1 [Example 3, (2,6-Diethyl-phenyl)-(4,5-dihydro-1H-imidazol-2-yl)-amine or tautomer] | 0.026 |
| Brc1cccc(Br)c1N=C1NCCN1 [Example 6, (2,6-Dibromo-phenyl)-imidazolidin-2-ylidene-amine or tautomer] | 0.501 |
| CCc1cccc(C)c1NC1=NCCN1 [Example 7, (4,5-Dihydro-1H-imidazol-2-yl)-(2-ethyl-6-methyl-phenyl)-amine or tautomer] | 0.169 |
| Cc1cccc(C(C)C)c1NC1=NCCN1 [Example 8, (4,5-Dihydro-1H-imidazol-2-yl)-(2-isopropyl-6-methyl-phenyl)-amine or tautomer] | 0.476 |
| Cc1ccc(Cl)cc1N=C1NCCN1 [Example 9, (5-Chloro-2-methyl-phenyl)-imidazolidin-2-ylidene-amine or tautomer] | 0.225 |
| O=C(CCc1ccc(NC2=NCCN2)cc1)c1ccc2ccccc2c1 [Example 11, 3-[4-(4,5-Dihydro-1H-imidazol-2-ylamino)-phenyl]-1-naphthalen-2-yl-propan-1-one ortautomer] | 0.121 |
| c1ccc2c(N=C3NCCN3)cccc2c1 [Example 14, Imidazolidin-2-ylidene-naphthalen-1-yl-amineor tautomer] | 0.036 |
| c1cc2c(c(NC3=NCCN3)c1)CCCC2 [Example 15, (4,5-Dihydro-1H-imidazol-2-yl)-(5,6,7,8-tetrahydro-naphthalen-1-yl)-amine or tautomer] | 0.039 |
| Cc1csc(Cl)c1NC1=NCCN1 [Example 16, (2-Chloro-4-methyl-thiophen-3-yl)-(4,5-dihydro-1H-imidazol-2-yl)-amine or tautomer] | 0.294 |
| Clc1cccc(Cl)c1SC1=NCCN1 [Example 18, 2-(2,6-Dichloro-phenylsulfanyl)-4,5-dihydro-1H-imidazole] | 0.03 |

same assay, conditions: radioligand used in the TAAR1 binding assay; TAAR1 species not given; read-out: calculated Kd value of the radioligand

| Structure (SMILES) | Kd [µM] |
| --- | --- |
| c1ccc2c(c1)CCCC2C1=NCCN1 (racemic) [[^3H]-rac-2-(1,2,3,4-tetrahydro-1-naphthyl)-2-imidazoline, reference compound] | 0.06 |
